Measured values reported in patent US10810329B2, “In silico design of peptides equilibrated in a lipid bilayer with partition free energies indicating probability of antimicrobial activity” (priority 2015, dated 2020).
In brackets after ≈: the same amount, converted by molar mass. Peptide text beside a SMILES is read from it.

Tests used:
[1] = tested on: E. coli ATCC 25922; assay type: cell-based, Escherichia coli; settings: for Antimicrobial activity (MIC) Experimental values: ATCC 25922; for MIC in MH medium: ATCC 25922, 16 h
Description: (§1) MIC: Minimal Inhibitory Concentration of AMPs in MH Medium Against E. coli ATCC 25922 Minimal inhibitory concentration (MIC) represents for the lowest concentration of peptide at which the AMP can still kill 90% of the bacteria. All MIC tests for WLK peptide series SEQ ID NO:1-13 were measured against Escherichia coli strain (ATCC 25922) in triplicate. Peptide concentration was determined by UV spectrophotometer (Ultrospec 1100 pro from Amersham Biosciences) at 280 nm with proper extinction coefficient. (Gill S. C. & Von Hippel P. H., Analytical biochemistry 1989, 182(2), 319-326). All of the samples were prepared from a stock solution containing peptides of concentrations 5, 2.5, 1.25, 0.625, 0.313, 0.156 and 0.078 mg/ml. Bacteria culture in the middle of logarithmic growth at a concentration of 5×10^5 colony-formation unit (CFU) and protein solution at the aforementioned concentrations were uniformly mixed in a 96-well culture plate (each well contains 1 microliter protein solution and 99 microliter of bacteria culture). After growing the culture at 37° C. for 16 hours, how bacterial growth was inhibited was measured by Thermo Max (Molecular Devices) at the wavelength of 600 nm. The MIC values were determined by triplicates of the above experiments.

[2] = tested on: Escherichia coli strain (ATCC 25922); assay type: cell-based
Description: as §1, with “Minimal” for “MIC: Minimal Inhibitory Concentration of AMPs in MH Medium Against E. coli ATCC 25922 Minimal”

Compound | Antimicrobial activity (MIC) Experimental values [1] | MIC in MH medium [1] | MIC in LYM medium, NaCl 50 [2] | MIC in LYM medium, NaCl 100 [2] | MIC in LYM medium, NaCl 200 [2] | MIC in LYM medium, NaCl 300 [2] | MIC in LYM medium, control [2]
CC(C)C[C@H](NC(=O)[C@H](Cc1c[nH]c2ccccc12)NC(=O)[C@H](CCCCN)NC(=O)[C@H](CC(C)C)NC(=O)[C@H](Cc1c[nH]c2ccccc12)NC(=O)[C@H](CCCCN)NC(=O)[C@H](CC(C)C)NC(=O)[C@H](Cc1c[nH]c2ccccc12)NC(=O)[C@H](CCCCN)NC(=O)[C@@H](N)CCCCN)C(=O)N[C@@H](CCCCN)C(=O)N[C@@H](CCCCN)C(=O)N[C@@H](CCCCN)C(=O)O [SEQ ID NO. 1, KKWLKWLKWLKKK, reference compound] (H-KKWLKWLKWLKKK-OH; N-terminus and C-terminus assumed) | 3.13 µg/mL | 3.13 µg/mL (≈ 1.73 µM) | 1.56 µg/mL (≈ 0.86 µM) | 3.13 µg/mL (≈ 1.73 µM) | 6.25 µg/mL (≈ 3.45 µM) | 6.25 µg/mL (≈ 3.45 µM) | 1.56 µg/mL (≈ 0.86 µM)
CC(C)C[C@H](NC(=O)[C@H](Cc1c[nH]c2ccccc12)NC(=O)[C@H](CCCCN)NC(=O)[C@H](CC(C)C)NC(=O)[C@H](Cc1c[nH]c2ccccc12)NC(=O)[C@H](CCCCN)NC(=O)[C@H](CC(C)C)NC(=O)[C@H](Cc1c[nH]c2ccccc12)NC(=O)[C@@H](N)CCCCN)C(=O)N[C@@H](CCCCN)C(=O)N[C@@H](CCCCN)C(=O)N[C@@H](CCCCN)C(=O)N[C@@H](CCCCN)C(=O)O [SEQ ID NO. 2, KWLKWLKWLKKKK] (H-KWLKWLKWLKKKK-OH; N-terminus and C-terminus assumed) | 6.25 µg/mL | 6.25 µg/mL (≈ 3.45 µM) | 1.56 µg/mL (≈ 0.86 µM) | 6.25 µg/mL (≈ 3.45 µM) | 12.5 µg/mL (≈ 6.89 µM) | 12.5 µg/mL (≈ 6.89 µM) | 1.56 µg/mL (≈ 0.86 µM)
CC(C)C[C@H](NC(=O)[C@H](Cc1c[nH]c2ccccc12)NC(=O)[C@H](CCCCN)NC(=O)[C@H](CC(C)C)NC(=O)[C@H](Cc1c[nH]c2ccccc12)NC(=O)[C@H](CCCCN)NC(=O)[C@H](CC(C)C)NC(=O)[C@@H](N)Cc1c[nH]c2ccccc12)C(=O)N[C@@H](CCCCN)C(=O)N[C@@H](CCCCN)C(=O)N[C@@H](CCCCN)C(=O)N[C@@H](CCCCN)C(=O)N[C@@H](CCCCN)C(=O)O [SEQ ID NO. 3, WLKWLKWLKKKKK] (H-WLKWLKWLKKKKK-OH; N-terminus and C-terminus assumed) | 6.25 µg/mL | 6.25 µg/mL (≈ 3.45 µM) | 3.13 µg/mL (≈ 1.73 µM) | 3.13 µg/mL (≈ 1.73 µM) | 12.5 µg/mL (≈ 6.89 µM) | 25 µg/mL (≈ 13.8 µM) | 1.56 µg/mL (≈ 0.86 µM)
CC(C)C[C@H](NC(=O)[C@H](Cc1c[nH]c2ccccc12)NC(=O)[C@H](CCCCN)NC(=O)[C@H](CC(C)C)NC(=O)[C@H](Cc1c[nH]c2ccccc12)NC(=O)[C@H](CCCCN)NC(=O)[C@@H](N)CC(C)C)C(=O)N[C@@H](CCCCN)C(=O)N[C@@H](CCCCN)C(=O)N[C@@H](CCCCN)C(=O)N[C@@H](CCCCN)C(=O)N[C@@H](CCCCN)C(=O)N[C@@H](Cc1c[nH]c2ccccc12)C(=O)O [SEQ ID NO. 4, LKWLKWLKKKKKW] (H-LKWLKWLKKKKKW-OH; N-terminus and C-terminus assumed) | 12.5 µg/mL | 12.5 µg/mL (≈ 6.89 µM) | 3.13 µg/mL (≈ 1.73 µM) | 3.13 µg/mL (≈ 1.73 µM) | 12.5 µg/mL (≈ 6.89 µM) | 50 µg/mL (≈ 27.6 µM) | 1.56 µg/mL (≈ 0.86 µM)
CC(C)C[C@H](NC(=O)[C@H](Cc1c[nH]c2ccccc12)NC(=O)[C@H](CCCCN)NC(=O)[C@H](CCCCN)NC(=O)[C@H](CCCCN)NC(=O)[C@H](CCCCN)NC(=O)[C@H](CCCCN)NC(=O)[C@H](CC(C)C)NC(=O)[C@H](Cc1c[nH]c2ccccc12)NC(=O)[C@H](CCCCN)NC(=O)[C@H](CC(C)C)NC(=O)[C@H](Cc1c[nH]c2ccccc12)NC(=O)[C@@H](N)CCCCN)C(=O)O [SEQ ID NO. 5, KWLKWLKKKKKWL] (H-KWLKWLKKKKKWL-OH; N-terminus and C-terminus assumed) | 12.5 µg/mL | 12.5 µg/mL (≈ 6.89 µM) | 3.13 µg/mL (≈ 1.73 µM) | 12.5 µg/mL (≈ 6.89 µM) | 25 µg/mL (≈ 13.8 µM) | 50 µg/mL (≈ 27.6 µM) | 3.13 µg/mL (≈ 1.73 µM)
CC(C)C[C@H](NC(=O)[C@H](Cc1c[nH]c2ccccc12)NC(=O)[C@H](CCCCN)NC(=O)[C@H](CCCCN)NC(=O)[C@H](CCCCN)NC(=O)[C@H](CCCCN)NC(=O)[C@H](CCCCN)NC(=O)[C@H](CC(C)C)NC(=O)[C@H](Cc1c[nH]c2ccccc12)NC(=O)[C@H](CCCCN)NC(=O)[C@H](CC(C)C)NC(=O)[C@@H](N)Cc1c[nH]c2ccccc12)C(=O)N[C@@H](CCCCN)C(=O)O [SEQ ID NO. 6, WLKWLKKKKKWLK] (H-WLKWLKKKKKWLK-OH; N-terminus and C-terminus assumed) | 6.25 µg/mL | 6.25 µg/mL (≈ 3.45 µM) | 3.13 µg/mL (≈ 1.73 µM) | 6.25 µg/mL (≈ 3.45 µM) | 12.5 µg/mL (≈ 6.89 µM) | 25 µg/mL (≈ 13.8 µM) | 1.56 µg/mL (≈ 0.86 µM)
CC(C)C[C@H](NC(=O)[C@H](Cc1c[nH]c2ccccc12)NC(=O)[C@H](CCCCN)NC(=O)[C@H](CCCCN)NC(=O)[C@H](CCCCN)NC(=O)[C@H](CCCCN)NC(=O)[C@H](CCCCN)NC(=O)[C@H](CC(C)C)NC(=O)[C@H](Cc1c[nH]c2ccccc12)NC(=O)[C@H](CCCCN)NC(=O)[C@@H](N)CC(C)C)C(=O)N[C@@H](CCCCN)C(=O)N[C@@H](Cc1c[nH]c2ccccc12)C(=O)O [SEQ ID NO. 7, LKWLKKKKKWLKW] (H-LKWLKKKKKWLKW-OH; N-terminus and C-terminus assumed) | 12.5 µg/mL | 12.5 µg/mL (≈ 6.89 µM) | 3.13 µg/mL (≈ 1.73 µM) | 6.25 µg/mL (≈ 3.45 µM) | 12.5 µg/mL (≈ 6.89 µM) | 50 µg/mL (≈ 27.6 µM) | 3.13 µg/mL (≈ 1.73 µM)
CC(C)C[C@H](NC(=O)[C@H](Cc1c[nH]c2ccccc12)NC(=O)[C@H](CCCCN)NC(=O)[C@H](CC(C)C)NC(=O)[C@H](Cc1c[nH]c2ccccc12)NC(=O)[C@H](CCCCN)NC(=O)[C@H](CCCCN)NC(=O)[C@H](CCCCN)NC(=O)[C@H](CCCCN)NC(=O)[C@H](CCCCN)NC(=O)[C@H](CC(C)C)NC(=O)[C@H](Cc1c[nH]c2ccccc12)NC(=O)[C@@H](N)CCCCN)C(=O)O [SEQ ID NO. 8, KWLKKKKKWLKWL] (H-KWLKKKKKWLKWL-OH; N-terminus and C-terminus assumed) | 6.25 µg/mL | 6.25 µg/mL (≈ 3.45 µM) | 3.13 µg/mL (≈ 1.73 µM) | 3.13 µg/mL (≈ 1.73 µM) | 6.25 µg/mL (≈ 3.45 µM) | 12.5 µg/mL (≈ 6.89 µM) | 3.13 µg/mL (≈ 1.73 µM)
CC(C)C[C@H](NC(=O)[C@H](Cc1c[nH]c2ccccc12)NC(=O)[C@H](CCCCN)NC(=O)[C@H](CC(C)C)NC(=O)[C@H](Cc1c[nH]c2ccccc12)NC(=O)[C@H](CCCCN)NC(=O)[C@H](CCCCN)NC(=O)[C@H](CCCCN)NC(=O)[C@H](CCCCN)NC(=O)[C@H](CCCCN)NC(=O)[C@H](CC(C)C)NC(=O)[C@@H](N)Cc1c[nH]c2ccccc12)C(=O)N[C@@H](CCCCN)C(=O)O [SEQ ID NO. 9, WLKKKKKWLKWLK] (H-WLKKKKKWLKWLK-OH; N-terminus and C-terminus assumed) | 6.25 µg/mL | 6.25 µg/mL (≈ 3.45 µM) | 3.13 µg/mL (≈ 1.73 µM) | 3.13 µg/mL (≈ 1.73 µM) | 12.5 µg/mL (≈ 6.89 µM) | 50 µg/mL (≈ 27.6 µM) | 3.13 µg/mL (≈ 1.73 µM)
CC(C)C[C@H](NC(=O)[C@H](Cc1c[nH]c2ccccc12)NC(=O)[C@H](CCCCN)NC(=O)[C@H](CC(C)C)NC(=O)[C@H](Cc1c[nH]c2ccccc12)NC(=O)[C@H](CCCCN)NC(=O)[C@H](CCCCN)NC(=O)[C@H](CCCCN)NC(=O)[C@H](CCCCN)NC(=O)[C@H](CCCCN)NC(=O)[C@@H](N)CC(C)C)C(=O)N[C@@H](CCCCN)C(=O)N[C@@H](Cc1c[nH]c2ccccc12)C(=O)O [SEQ ID NO. 10, LKKKKKWLKWLKW] (H-LKKKKKWLKWLKW-OH; N-terminus and C-terminus assumed) | 6.25 µg/mL | 6.25 µg/mL (≈ 3.45 µM) | 3.13 µg/mL (≈ 1.73 µM) | 3.13 µg/mL (≈ 1.73 µM) | 6.25 µg/mL (≈ 3.45 µM) | 25 µg/mL (≈ 13.8 µM) | 3.13 µg/mL (≈ 1.73 µM)
